Results as given in patent US20240190880A1 (THE REGENTS OF THE UNIVERSITY OF MICHIGAN, priority 2021, published 2024).

Target: T1, ER (Homo sapiens, UniProt P03372)
T1 construct: host or cells: T47D and MCF7 human breast cancer cells
T1 sequence (P03372 1-595): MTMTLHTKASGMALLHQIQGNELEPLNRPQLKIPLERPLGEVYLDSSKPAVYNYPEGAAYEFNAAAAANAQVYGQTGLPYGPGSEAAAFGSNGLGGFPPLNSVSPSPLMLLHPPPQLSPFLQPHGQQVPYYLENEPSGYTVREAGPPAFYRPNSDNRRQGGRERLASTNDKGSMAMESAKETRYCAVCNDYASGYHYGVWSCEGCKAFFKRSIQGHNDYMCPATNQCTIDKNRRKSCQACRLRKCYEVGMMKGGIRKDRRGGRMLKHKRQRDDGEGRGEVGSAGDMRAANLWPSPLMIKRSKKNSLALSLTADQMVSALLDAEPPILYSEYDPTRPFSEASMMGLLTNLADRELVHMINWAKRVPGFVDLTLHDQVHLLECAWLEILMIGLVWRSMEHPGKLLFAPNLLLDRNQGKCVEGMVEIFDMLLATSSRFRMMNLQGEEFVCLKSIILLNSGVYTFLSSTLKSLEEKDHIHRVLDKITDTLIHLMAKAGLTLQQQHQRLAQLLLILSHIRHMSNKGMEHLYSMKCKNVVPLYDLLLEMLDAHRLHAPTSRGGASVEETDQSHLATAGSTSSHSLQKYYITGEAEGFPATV
Experiment: ER degradation activity, in-cell western blot analysis in T47D cells
Type: cell-based
Conditions: 16 hours, Table A does not say which cell line (T47D or MCF7), read-out: Potency (DC50)
Summary of the method: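 Human T47D cells (DMEM, 10% FBS) are dosed for 16 h with 0.5% DMSO final and probed with 680- and 800-dye secondary antibodies. Relative ER is calculated against vehicle and untreated wells.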

Question: `O=C1CCC(N2C(=O)c3cc4c(cc3C2=O)CN(CC(=O)N2CCC3(CC2)CCN(c2ccc([C@@H]5c6ccc(O)cc6CC[C@@H]5c5ccccc5)cc2)CC3)CC4)C(=O)N1` (mixture of isomers) [E 172, rac-2-(2,6-dioxopiperidin-3-yl)-6-(2-(9-(4-((1R,2S)-6-hydroxy-2-phenyl-1,2,3,4-tetrahydronaphthalen-1-yl)phenyl)-3,9-diazaspiro[5.5]undecan-3-yl)-2-oxoethyl)-5,6,7,8-tetrahydro-1H-pyrrolo[3,4-g]isoquinoline-1,3(2H)-dione] was tested. Which DC50 did it give?
Answer: 10 to 100 nM

Question: For `O=C1CCC(N2C(=O)c3cc4c(cc3C2=O)CN(CC(=O)N2CC3(CCN(c5ccc([C@@H]6c7ccc(O)cc7CC[C@@H]6c6ccccc6)cc5F)CC3)C2)C4)C(=O)N1` (mixture of isomers) [E 173, Rac-2-(2,6-dioxopiperidin-3-yl)-6-(2-(7-(2-fluoro-4-((1R,2S)-6-hydroxy-2-phenyl-1,2,3,4-tetrahydronaphthalen-1-yl)phenyl)-2,7-diazaspiro[3.5]nonan-2-yl)-2-oxoethyl)-6,7-dihydropyrrolo[3,4-f]isoindole-1,3(2H,5H)-dione], which DC50 is on record?
Answer: > 100 nM

Question: How did the DC50 turn out when `O=C1CCC(N2C(=O)c3cc4c(cc3C2=O)CN(CC(=O)N2CC3(CCN(c5ccc([C@@H]6c7ccc(O)cc7CC[C@@H]6c6ccccc6)c(F)c5)CC3)C2)C4)C(=O)N1` (mixture of isomers) [E 174, Rac-2-(2,6-dioxopiperidin-3-yl)-6-(2-(7-(3-fluoro-4-((1S,2S)-6-hydroxy-2-phenyl-1,2,3,4-tetrahydronaphthalen-1-yl)phenyl)-2,7-diazaspiro[3.5]nonan-2-yl)-2-oxoethyl)-6,7-dihydropyrrolo[3,4-f]isoindole-1,3(2H,5H)-dione] was run?
Answer: 10 to 100 nM

Question: With `O=C1CCC(N2C(=O)c3cc4c(cc3C2=O)CN(CC(=O)N2CCC3(CC2)CCN(c2c(F)cc([C@@H]5c6ccc(O)cc6CC[C@@H]5c5ccccc5)cc2F)CC3)C4)C(=O)N1` (mixture of isomers) [E 175, Rac-6-(2-(9-(2,6-difluoro-4-((1R,2S)-6-hydroxy-2-phenyl-1,2,3,4-tetrahydronaphthalen-1-yl)phenyl)-3,9-diazaspiro[5.5]undecan-3-yl)-2-oxoethyl)-2-(2,6-dioxopiperidin-3-yl)-6,7-dihydropyrrolo[3,4-f]isoindole-1,3(2H,5H)-dione] as the molecule, how does the DC50 read?
Answer: > 100 nM

Question: How did the DC50 turn out when `O=C1CCC(N2C(=O)c3cc4c(cc3C2=O)CN(CC(=O)N2CCC3(CC2)CCN(c2cc(F)c([C@@H]5c6ccc(O)cc6CC[C@@H]5c5ccccc5)c(F)c2)CC3)C4)C(=O)N1` (mixture of isomers) [E 176, Rac-6-(2-(9-(3,5-difluoro-4-((1S,2S)-6-hydroxy-2-phenyl-1,2,3,4-tetrahydronaphthalen-1-yl)phenyl)-3,9-diazaspiro[5.5]undecan-3-yl)-2-oxoethyl)-2-(2,6-dioxopiperidin-3-yl)-6,7-dihydropyrrolo[3,4-f]isoindole-1,3(2H,5H)-dione] was run?
Answer: > 100 nM

Question: For `O=C1CCC(N2C(=O)c3cc4c(cc3C2=O)CN(CC(=O)N2CCC3(CC2)CCN(c2ccc([C@@H]5c6ccc(O)cc6CC[C@@H]5C5CCCCC5)cc2)CC3)C4)C(=O)N1` (mixture of isomers) [E 177, Rac-6-(2-(9-(4-((1R,2R)-2-cyclohexyl-6-hydroxy-1,2,3,4-tetrahydronaphthalen-1-yl)phenyl)-3,9-diazaspiro[5.5]undecan-3-yl)-2-oxoethyl)-2-(2,6-dioxopiperidin-3-yl)-6,7-dihydropyrrolo[3,4-f]isoindole-1,3(2H,5H)-dione], which DC50 is on record?
Answer: 10 to 100 nM

Question: How did the DC50 turn out when `O=C1CCC(N2C(=O)c3cc4c(cc3C2=O)CN(CC(=O)N2CCC3(CC2)CCN(c2ccc([C@@H]5c6ccc(O)cc6CC[C@@H]5C5CCC(F)(F)CC5)cc2)CC3)C4)C(=O)N1` (mixture of isomers) [E 178, Rac-6-(2-(9-(4-((1R,2R)-2-(4,4-difluorocyclohexyl)-6-hydroxy-1,2,3,4-tetrahydronaphthalen-1-yl)phenyl)-3,9-diazaspiro[5.5]undecan-3-yl)-2-oxoethyl)-2-(2,6-dioxopiperidin-3-yl)-6,7-dihydropyrrolo[3,4-f]isoindole-1,3(2H,5H)-dione] was run?
Answer: 10 to 100 nM

Question: Which DC50 does the source give for `O=C1CCC(N2C(=O)c3cc4c(cc3C2=O)CN(CC(=O)N2CCC3(CC2)CCN(c2ccc([C@@H]5c6ccc(O)cc6CCC56CCCC6)cc2)CC3)C4)C(=O)N1` (mixture of isomers) [E 179, Rac-2-(2,6-dioxopiperidin-3-yl)-6-(2-(9-(4-((R)-6′-hydroxy-3′,4′-dihydro-1′H-spiro[cyclopentane-1,2′-naphthalen]-1′-yl)phenyl)-3,9-diazaspiro[5.5]undecan-3-yl)-2-oxoethyl)-6,7-dihydropyrrolo[3,4-f]isoindole-1,3(2H,5H)-dione] here?
Answer: 10 to 100 nM

Question: With `O=C1CCC(N2C(=O)c3cc4c(cc3C2=O)CN(CC(=O)N2CCC3(CC2)CCN(c2ccc([C@@H]5c6ccc(B(O)O)cc6CC[C@@H]5c5ccccc5)cc2)CC3)C4)C(=O)N1` (mixture of isomers) [E 180, Rac-((5R,6S)-5-(4-(9-(2-(6-(2,6-dioxopiperidin-3-yl)-5,7-dioxo-3,5,6,7-tetrahydropyrrolo[3,4-f]isoindol-2(1H)-yl)acetyl)-3,9-diazaspiro[5.5]undecan-3-yl)phenyl)-6-phenyl-5,6,7,8-tetrahydronaphthalen-2-yl)boronic acid] as the molecule, how does the DC50 read?
Answer: 10 to 100 nM

Question: With `O=C1CCC(N2C(=O)c3cc4c(cc3C2=O)CN(C(=O)CN2CCC3(CC2)CCN(c2ccc([C@@H]5c6ccc(B(O)O)cc6CC[C@@H]5c5ccccc5)cc2)CC3)C4)C(=O)N1` (mixture of isomers) [E 181, Rac-((5R,6S)-5-(4-(9-(2-(6-(2,6-dioxopiperidin-3-yl)-5,7-dioxo-3,5,6,7-tetrahydropyrrolo[3,4-f]isoindol-2(1H)-yl)-2-oxoethyl)-3,9-diazaspiro[5.5]undecan-3-yl)phenyl)-6-phenyl-5,6,7,8-tetrahydronaphthalen-2-yl)boronic acid] as the molecule, how does the DC50 read?
Answer: > 100 nM

Question: `O=C1CCC(N2C(=O)c3cc4c(cc3C2=O)CN(CC(=O)N2CCC3(CC2)CCN(c2ccc([C@@H]5c6ccc(O)cc6CC[C@@H]5c5ccc(F)cc5)cn2)CC3)C4)C(=O)N1` (mixture of isomers) [E 185, Rac-2-(2,6-dioxopiperidin-3-yl)-6-(2-(9-(5-((1S,2S)-2-(4-fluorophenyl)-6-hydroxy-1,2,3,4-tetrahydronaphthalen-1-yl)pyridin-2-yl)-3,9-diazaspiro[5.5]undecan-3-yl)-2-oxoethyl)-6,7-dihydropyrrolo[3,4-f]isoindole-1,3(2H,5H)-dione] was tested. Which DC50 did it give?
Answer: > 100 nM

Question: For `O=C1CCC(N2C(=O)c3cc4c(cc3C2=O)CN(CCN2CCC3(CC2)CN(c2ccc([C@@H]5c6ccc(O)cc6CC[C@@H]5c5ccccc5)cc2)C3)C4)C(=O)N1` (mixture of isomers) [E 266, rac-2-(2,6-dioxopiperidin-3-yl)-6-(2-(2-(4-((1R,2S)-6-hydroxy-2-phenyl-1,2,3,4-tetrahydronaphthalen-1-yl)phenyl)-2,7-diazaspiro[3.5]nonan-7-yl)ethyl)-6,7-dihydropyrrolo[3,4-f]isoindole-1,3(2H,5H)-dione], which DC50 is on record?
Answer: 10 to 100 nM

Question: With `O=C1CCC(N2C(=O)c3cc4c(cc3C2=O)CN(CCN2CC3(CCN(c5ccc([C@@H]6c7ccc(O)cc7CC[C@@H]6c6ccccc6)cc5)CC3)C2)C4)C(=O)N1` (mixture of isomers) [E 267, rac-2-(2,6-dioxopiperidin-3-yl)-6-(2-(7-(4-((1R,2S)-6-hydroxy-2-phenyl-1,2,3,4-tetrahydronaphthalen-1-yl)phenyl)-2,7-diazaspiro[3.5]nonan-2-yl)ethyl)-6,7-dihydropyrrolo[3,4-f]isoindole-1,3(2H,5H)-dione] as the molecule, how does the DC50 read?
Answer: 10 to 100 nM

Question: How did the DC50 turn out when `O=C1CCC(N2C(=O)c3cc4c(cc3C2=O)CN(CCN2CCC3(CC2)CCN(c2ccc([C@@H]5c6ccc(O)cc6CC[C@@H]5c5ccccc5)cc2)CC3)C4)C(=O)N1` (mixture of isomers) [E 268, rac-2-(2,6-dioxopiperidin-3-yl)-6-(2-(9-(4-((1R,2S)-6-hydroxy-2-phenyl-1,2,3,4-tetrahydronaphthalen-1-yl)phenyl)-3,9-diazaspiro[5.5]undecan-3-yl)ethyl)-6,7-dihydropyrrolo[3,4-f]isoindole-1,3(2H,5H)-dione] was run?
Answer: 10 to 100 nM

Question: For `CN(C1CCN(c2ccc([C@@H]3c4ccc(O)cc4CC[C@@H]3c3ccccc3)cc2)CC1)N1CCC(C(=O)N2Cc3cc4c(cc3C2)C(=O)N(C2CCC(=O)NC2=O)C4=O)CC1` (mixture of isomers) [E 287, 2-(2,6-dioxopiperidin-3-yl)-6-(1-((1-(4-((1R,2S)-6-hydroxy-2-phenyl-1,2,3,4-tetrahydronaphthalen-1-yl)phenyl)piperidin-4-yl)(methyl)amino)piperidine-4-carbonyl)-6,7-dihydropyrrolo[3,4-f]isoindole-1,3(2H,5H)-dione], which DC50 is on record?
Answer: 10 to 100 nM

Question: With `CN(C1CCN(c2ccc([C@@H]3c4ccc(O)cc4CC[C@@H]3c3ccccc3)cc2)CC1)N1CCC(C(=O)N2Cc3cc4c(cc3C2)C(=O)N(C2CCC(=O)NC2=O)C4)CC1` (mixture of isomers) [E 288, 3-(6-(1-((1-(4-((1R,2S)-6-hydroxy-2-phenyl-1,2,3,4-tetrahydronaphthalen-1-yl)phenyl)piperidin-4-yl)(methyl)amino)piperidine-4-carbonyl)-1-oxo-3,5,6,7-tetrahydropyrrolo[3,4-f]isoindol-2(1H)-yl)piperidine-2,6-dione] as the molecule, how does the DC50 read?
Answer: 10 to 100 nM
